From the NIST ThermoML archive (doi:10.1021/je1000878)
± gives the expanded uncertainty stated by the source.

Experiment: cn = amount concentration of the nth substance listed, in mol/dm3
Details: 101.3 kPa, Liquid, c1 = 2

Compound [Cl-].[Na+] [sodium chloride] + O has a viscosity (298.15 K) of 1.085 ± 0.014 mPa·s, a viscosity (303.15 K) of 0.9761 ± 0.013 mPa·s and a viscosity (308.15 K) of 0.8816 ± 0.012 mPa·s. The viscosity (313.15 K) was 0.8069 ± 0.011 mPa·s, the viscosity (318.15 K) was 0.7426 ± 0.01 mPa·s and the viscosity (323.15 K) was 0.676 ± 0.0095 mPa·s. The viscosity (328.15 K) was 0.6257 ± 0.0088 mPa·s.
Compound O=[N+]([O-])[O-].[Na+] [sodium nitrate] + O has a viscosity (298.15 K) of 1.036 ± 0.014 mPa·s, a viscosity (303.15 K) of 0.9367 ± 0.013 mPa·s and a viscosity (308.15 K) of 0.8519 ± 0.012 mPa·s. It also gave a viscosity (313.15 K) of 0.7777 ± 0.011 mPa·s, a viscosity (318.15 K) of 0.7167 ± 0.0099 mPa·s and a viscosity (323.15 K) of 0.6559 ± 0.0092 mPa·s. It also gave a viscosity (328.15 K) of 0.6043 ± 0.0086 mPa·s.
